One series concerns the target T1, PI3Kδ (Homo sapiens, UniProt O00329).
T1 construct: purchased Invitrogen (US)
Description: In vitro enzyme activity (ADP-Glo) against PI3Kδ. The following applies: Table 2; ATP 50 μM, PIP2:PS 50 μM. Format: biochemical. How it is done: (§1) In vitro enzyme activity experiments were performed to determine the IC50 values of the compounds against PI3K family type I kinases (PI3Kα, PI3Kβ, PI3Kγ, PI3Kδ) and type II kinases (PIK3C2A, PIK3C2B). Protein kinases PI3Kα, PI3Kγ, PI3Kδ, PIK3C2A, and PIK3C2B were all purchased from Invitrogen (US); protein kinase PI3Kβ was purchased from sigma (US); the three substrates PIP2: PS, PI and PI: PS were purchased from Invitrogen (US).
(§2) Protein kinases diluted to a certain concentration, i.e., PI3Kα 5.4 μL (with a final concentration of 0.16 ng/μL), PI3Kβ 5.4 μL (with a final concentration of 6 ng/μL), PI3Kδ 5.4 μL (with a final concentration of 1 ng/μL), PI3Kγ 5.4 μL (with a final concentration of 5 ng/μL), PIK3C2A 5.4 μL (with a final concentration of 5 ng/μL), and PIK3C2B 5.4 μL (with a final concentration of 10 ng/μL) were respectively reacted with 1 μL of the serially diluted drug compounds for 1 hour at room temperature (final drug concentrations were 10 μM, 1 μM, 0.3 μM, 0.1 μM, 0.03 μM, 0.01 μM, 0.003 μM, and 0.001 μM, respectively).
(§3) To each reaction tube of the above PI3K family type I kinases, 6 μL of a mixture of ATP (Promega, US) and substrate PIP2:PS (final concentrations of ATP in the reaction systems of kinases PI3Kα, and PI3Kβ were 10 μM, and final concentrations of ATP in the reaction systems of kinases PI3Kδ, and PI3Kγ were 50 μM, and final concentrations of the substrate PIP2:PS were all 50 μM) was added, and reacted at 37° C. for 1 hour. The reaction buffer was 50 mM Hepes (pH 7.5) (Promega, USA), 3 mM MgCl2, 1 mM EGTA (Promega, US), 100 mM NaCl, 0.03% CHAPS (Promega, US).
(§4) 5 μL of kinase solution after reaction was placed in a 384-well plate (Corning, US), and 5 μL of ADP-Glo™ reagent (Promega, US) was added thereto and reacted at room temperature for 40 minutes to stop the kinase reaction and exhaust the remaining ATP; 10 μL of kinase detection reagent was added to convert ADP into ATP, and coupled luciferase/luciferin reaction was utilized to detect the newly synthesized ATP. Envision was utilized for readout and plotting, and Graphpad IC50 value was calculated.
In general terms: In ADP-Glo the light output rises with the ADP produced.

A further series addresses T2, PI3Kγ (Homo sapiens, UniProt P48736).
T2 construct: purchased Invitrogen (US)
The experiment in a line: In vitro enzyme activity (ADP-Glo) against PI3Kγ. Format: biochemical. The following applies: Table 2; ATP 50 μM, PIP2:PS 50 μM; read-out: IC50 against PI3Kγ. The procedure: as §1, §2, §3, §4

The target of the next series is T3, PIK3C2A (Homo sapiens, UniProt O00443).
T3 construct: purchased Invitrogen (US)
Description: In vitro enzyme activity (ADP-Glo) against PIK3C2A. The note with it: Table 3; ATP 50 μM, substrate PI 100 μM; read-out: IC50 PI3KC2A. In kind it is biochemical. How it is done: (§5) In vitro enzyme activity experiments were performed to determine the IC50 values of the compounds against PI3K family type I kinases (PI3Kα, PI3Kβ, PI3Kγ, PI3Kδ) and type II kinases (PIK3C2A, PIK3C2B). Protein kinases PI3Kα, PI3Kγ, PI3Kδ, PIK3C2A, and PIK3C2B were all purchased from Invitrogen (US); protein kinase PI3Kβ was purchased from sigma (US); the three substrates PIP2: PS, PI and PI: PS were purchased from Invitrogen (US). […]
as §4

In a further series the target is T4, PIK3C2B (Homo sapiens, UniProt O00750).
T4 construct: purchased Invitrogen (US)
The experiment in a line: In vitro enzyme activity (ADP-Glo) against PIK3C2B. In kind it is biochemical. The following applies: Table 3; ATP 50 μM, substrate PI 100 μM; read-out: IC50 PI3KC2B. The procedure: as §5, §4

In another series the target is T5, PI3Kβ (Homo sapiens, UniProt P42338).
T5 construct: purchased sigma (US)
T5 sequence (P42338 whole entry): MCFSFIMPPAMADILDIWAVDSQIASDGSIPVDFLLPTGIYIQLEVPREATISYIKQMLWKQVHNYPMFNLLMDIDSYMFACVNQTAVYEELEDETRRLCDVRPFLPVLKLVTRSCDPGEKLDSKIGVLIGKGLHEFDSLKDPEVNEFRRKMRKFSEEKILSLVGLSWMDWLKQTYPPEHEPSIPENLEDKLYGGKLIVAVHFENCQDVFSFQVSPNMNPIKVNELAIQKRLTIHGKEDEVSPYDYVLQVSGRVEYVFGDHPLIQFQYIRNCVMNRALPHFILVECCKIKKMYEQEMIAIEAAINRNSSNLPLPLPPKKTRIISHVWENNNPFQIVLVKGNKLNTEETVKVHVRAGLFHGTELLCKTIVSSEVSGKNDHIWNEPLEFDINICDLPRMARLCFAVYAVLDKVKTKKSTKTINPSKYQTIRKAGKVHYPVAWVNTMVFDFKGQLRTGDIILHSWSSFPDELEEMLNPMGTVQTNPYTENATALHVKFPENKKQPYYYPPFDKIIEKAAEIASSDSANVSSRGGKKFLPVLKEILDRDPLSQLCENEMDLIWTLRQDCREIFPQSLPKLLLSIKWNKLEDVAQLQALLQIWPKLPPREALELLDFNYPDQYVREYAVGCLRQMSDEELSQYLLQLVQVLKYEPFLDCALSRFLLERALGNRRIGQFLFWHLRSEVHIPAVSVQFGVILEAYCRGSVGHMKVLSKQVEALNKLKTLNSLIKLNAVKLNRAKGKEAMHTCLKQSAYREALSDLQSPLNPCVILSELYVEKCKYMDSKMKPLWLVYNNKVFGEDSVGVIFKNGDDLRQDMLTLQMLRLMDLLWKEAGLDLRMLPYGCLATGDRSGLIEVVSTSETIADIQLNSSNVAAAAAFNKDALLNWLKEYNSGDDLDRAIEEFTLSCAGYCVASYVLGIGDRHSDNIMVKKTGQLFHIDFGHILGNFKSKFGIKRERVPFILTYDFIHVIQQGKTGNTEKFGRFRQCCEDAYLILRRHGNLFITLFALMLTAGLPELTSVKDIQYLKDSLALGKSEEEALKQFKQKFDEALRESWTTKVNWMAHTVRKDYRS
T5 sequence (P27986 whole entry partner): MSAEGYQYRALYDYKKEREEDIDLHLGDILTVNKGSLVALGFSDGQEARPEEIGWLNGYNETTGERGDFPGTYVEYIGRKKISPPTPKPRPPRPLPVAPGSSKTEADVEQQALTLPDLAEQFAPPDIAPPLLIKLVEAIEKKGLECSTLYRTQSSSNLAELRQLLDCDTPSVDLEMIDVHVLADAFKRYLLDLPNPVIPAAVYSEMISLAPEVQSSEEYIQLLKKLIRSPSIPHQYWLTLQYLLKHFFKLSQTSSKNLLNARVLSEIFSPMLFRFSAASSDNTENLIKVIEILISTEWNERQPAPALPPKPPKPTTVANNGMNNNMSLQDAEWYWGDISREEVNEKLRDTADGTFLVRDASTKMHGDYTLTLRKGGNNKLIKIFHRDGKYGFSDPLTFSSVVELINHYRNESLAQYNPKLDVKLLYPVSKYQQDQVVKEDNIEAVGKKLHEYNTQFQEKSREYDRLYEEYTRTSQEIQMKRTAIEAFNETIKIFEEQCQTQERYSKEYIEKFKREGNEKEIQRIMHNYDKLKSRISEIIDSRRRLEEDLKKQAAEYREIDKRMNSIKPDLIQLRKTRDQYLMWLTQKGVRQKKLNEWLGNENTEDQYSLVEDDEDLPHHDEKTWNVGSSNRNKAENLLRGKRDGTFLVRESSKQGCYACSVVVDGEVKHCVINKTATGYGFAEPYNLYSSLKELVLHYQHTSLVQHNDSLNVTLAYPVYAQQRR
Description: In vitro enzyme activity (ADP-Glo) against PI3Kβ. Format: biochemical. The following applies: Table 2; ATP 10 μM, PIP2:PS 50 μM; read-out: IC50 against PI3Kβ. The procedure:
as §1, §2, §3, §4

In the next series the target is T6, PI3Kα (Homo sapiens, UniProt P42336).
T6 construct: purchased Invitrogen (US)
T6 sequence (P42336 whole entry): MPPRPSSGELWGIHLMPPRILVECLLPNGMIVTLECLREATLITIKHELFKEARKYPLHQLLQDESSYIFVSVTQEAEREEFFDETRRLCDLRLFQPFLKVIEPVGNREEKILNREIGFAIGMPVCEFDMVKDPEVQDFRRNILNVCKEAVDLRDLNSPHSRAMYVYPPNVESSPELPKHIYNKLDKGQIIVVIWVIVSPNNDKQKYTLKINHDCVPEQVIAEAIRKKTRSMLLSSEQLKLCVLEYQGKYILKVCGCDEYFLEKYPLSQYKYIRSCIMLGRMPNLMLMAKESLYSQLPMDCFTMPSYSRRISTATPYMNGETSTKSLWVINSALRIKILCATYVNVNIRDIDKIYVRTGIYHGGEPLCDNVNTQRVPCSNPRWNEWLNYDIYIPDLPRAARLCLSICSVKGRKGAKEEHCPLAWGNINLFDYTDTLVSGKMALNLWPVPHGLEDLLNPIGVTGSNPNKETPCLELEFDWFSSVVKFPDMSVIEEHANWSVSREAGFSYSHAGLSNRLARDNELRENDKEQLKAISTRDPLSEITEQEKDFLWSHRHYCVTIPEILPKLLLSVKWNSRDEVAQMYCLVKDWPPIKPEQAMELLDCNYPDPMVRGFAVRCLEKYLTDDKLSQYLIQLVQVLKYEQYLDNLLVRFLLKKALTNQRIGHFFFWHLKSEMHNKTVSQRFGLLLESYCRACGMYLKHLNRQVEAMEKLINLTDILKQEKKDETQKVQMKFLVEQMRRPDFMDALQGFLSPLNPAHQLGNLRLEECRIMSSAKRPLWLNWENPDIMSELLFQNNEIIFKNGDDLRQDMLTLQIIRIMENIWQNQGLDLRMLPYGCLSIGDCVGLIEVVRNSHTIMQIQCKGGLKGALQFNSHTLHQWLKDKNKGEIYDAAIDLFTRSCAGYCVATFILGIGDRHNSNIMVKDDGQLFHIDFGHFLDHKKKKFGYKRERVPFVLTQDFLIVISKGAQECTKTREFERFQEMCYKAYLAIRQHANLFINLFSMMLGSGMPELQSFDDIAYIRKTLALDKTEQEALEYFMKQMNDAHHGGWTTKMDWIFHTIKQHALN
T6 sequence (P27986 whole entry partner): as the sequence (P27986 whole entry partner) above
The experiment in a line: In vitro enzyme activity (ADP-Glo) against PI3Kα. In kind it is biochemical. The note with it: Table 2; ATP 10 μM, PIP2:PS 50 μM. How it is done: as §1, §2, §3, §4

Series [1] deals with rat model of adjuvant arthritis. The experiment in a line: Efficacy in rat model of rheumatoid arthritis (adjuvant arthritis). The following applies: 25 mg/kg/day, oral gavage, once a day. In kind it is in vivo, Sprague-Dawley (SD) rats. How it is done:
In this example, the experimental results of Compound 9 were tested in a rat model of adjuvant arthritis.
(1) Sprague-Dawley (SD) rats, female, weighing 180 g±20 g, were purchased from Beijing Vital River Laboratory Animal Technology Co., Ltd. and maintained in an SPL laboratory. Drinking water and litter were sterilized by autoclaving, and all operations related to the rats were performed under sterile conditions.
(2) In the vehicle group and the treatment group, 10.0 mg/ml CFA (complete Freund's adjuvant, purchased from Sigma, US) was mixed thoroughly, and 0.1 ml of the CFA was injected intracutaneously into the right rear vola pedis of each rat on day 0 to induce inflammation; the normal group was injected with saline in the same way.
(3) Body weight and paw swelling were measured every 3 or 4 days after modeling. […]
(4) The body weight and paw swelling were measured every two days after administration, and the paw swelling was measured with a paw swelling meter. […] After the inflammation, the volume of left rear foot was measured to obtain the swelling degree of the secondary paw (Δm1=|paw volume after injection−paw volume before injection|).

SMILES strings stand for the structures. Where only a bound is given, the exact number is not on record here.

T1 sequence (O00329 whole entry): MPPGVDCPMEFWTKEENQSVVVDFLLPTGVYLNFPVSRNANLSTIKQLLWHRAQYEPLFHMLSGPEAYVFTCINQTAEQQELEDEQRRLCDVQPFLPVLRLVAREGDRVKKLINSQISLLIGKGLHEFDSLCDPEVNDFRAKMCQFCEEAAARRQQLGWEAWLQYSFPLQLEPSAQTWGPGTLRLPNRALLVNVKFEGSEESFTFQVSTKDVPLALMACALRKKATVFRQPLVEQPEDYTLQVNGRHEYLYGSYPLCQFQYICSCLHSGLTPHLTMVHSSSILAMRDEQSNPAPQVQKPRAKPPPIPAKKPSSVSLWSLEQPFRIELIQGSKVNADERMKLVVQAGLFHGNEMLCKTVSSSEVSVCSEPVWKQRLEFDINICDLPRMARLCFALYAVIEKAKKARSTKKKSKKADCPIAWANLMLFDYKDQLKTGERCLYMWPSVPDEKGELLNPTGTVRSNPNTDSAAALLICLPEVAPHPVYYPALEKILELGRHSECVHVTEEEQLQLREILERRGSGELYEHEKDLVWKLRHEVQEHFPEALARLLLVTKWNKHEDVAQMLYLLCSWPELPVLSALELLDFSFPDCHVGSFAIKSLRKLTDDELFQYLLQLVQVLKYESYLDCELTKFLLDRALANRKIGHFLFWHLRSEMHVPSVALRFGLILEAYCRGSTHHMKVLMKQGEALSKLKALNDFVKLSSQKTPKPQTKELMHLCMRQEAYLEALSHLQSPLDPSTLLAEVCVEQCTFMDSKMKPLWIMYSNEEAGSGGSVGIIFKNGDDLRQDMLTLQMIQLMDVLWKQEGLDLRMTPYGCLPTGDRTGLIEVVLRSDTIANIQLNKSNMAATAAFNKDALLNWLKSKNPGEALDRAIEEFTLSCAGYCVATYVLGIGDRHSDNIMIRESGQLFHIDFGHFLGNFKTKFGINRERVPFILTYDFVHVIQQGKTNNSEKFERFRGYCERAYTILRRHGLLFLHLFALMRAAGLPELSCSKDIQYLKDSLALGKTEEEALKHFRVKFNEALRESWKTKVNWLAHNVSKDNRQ
T1 sequence (P27986 whole entry partner): as the sequence (P27986 whole entry partner) above
T2 sequence (P48736 whole entry): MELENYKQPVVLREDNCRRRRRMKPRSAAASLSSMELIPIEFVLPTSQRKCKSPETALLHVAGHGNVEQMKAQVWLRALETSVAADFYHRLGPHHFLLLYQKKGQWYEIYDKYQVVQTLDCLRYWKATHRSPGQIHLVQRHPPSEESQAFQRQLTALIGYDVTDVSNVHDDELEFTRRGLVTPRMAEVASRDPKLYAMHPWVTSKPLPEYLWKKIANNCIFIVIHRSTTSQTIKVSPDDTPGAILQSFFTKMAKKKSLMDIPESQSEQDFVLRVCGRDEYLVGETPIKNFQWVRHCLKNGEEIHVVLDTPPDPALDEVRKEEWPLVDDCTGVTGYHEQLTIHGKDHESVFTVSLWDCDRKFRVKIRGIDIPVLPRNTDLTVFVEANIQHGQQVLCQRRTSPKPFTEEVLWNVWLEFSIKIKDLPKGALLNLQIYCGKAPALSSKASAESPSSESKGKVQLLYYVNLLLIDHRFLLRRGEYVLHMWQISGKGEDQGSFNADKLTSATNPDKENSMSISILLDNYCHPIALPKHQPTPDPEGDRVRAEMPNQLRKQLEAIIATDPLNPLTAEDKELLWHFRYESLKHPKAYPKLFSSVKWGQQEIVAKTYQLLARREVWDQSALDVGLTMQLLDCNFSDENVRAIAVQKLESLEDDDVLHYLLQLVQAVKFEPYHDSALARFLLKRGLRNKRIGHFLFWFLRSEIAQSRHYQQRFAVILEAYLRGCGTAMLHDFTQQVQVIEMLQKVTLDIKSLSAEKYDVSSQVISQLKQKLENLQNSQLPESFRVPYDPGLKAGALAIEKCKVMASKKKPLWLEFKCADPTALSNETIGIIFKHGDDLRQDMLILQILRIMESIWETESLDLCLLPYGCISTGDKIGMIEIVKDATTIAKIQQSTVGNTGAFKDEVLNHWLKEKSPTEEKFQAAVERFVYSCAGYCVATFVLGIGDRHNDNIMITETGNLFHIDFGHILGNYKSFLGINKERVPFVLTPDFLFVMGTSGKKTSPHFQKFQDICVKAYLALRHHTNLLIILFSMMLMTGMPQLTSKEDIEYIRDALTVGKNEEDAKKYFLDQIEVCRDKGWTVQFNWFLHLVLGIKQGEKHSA

A word on the IC50: it is the concentration at which inhibition is half-maximal. For `CCC(c1nc2cccc(F)c2c(=O)n1C1CC1)n1nc(-c2ccc(OC)c(F)c2)c2c(N)ncnc21` (stereo not shown) [Compound 9, 2-(1-(4-amino-3-(3-fluoro-4-methoxyphenyl)-1H-pyrazolo [3,4-d]pyrimidin-1-yl)propyl)-3-cyclopropyl-5-fluoroquinazolin-4(3H)-one], the IC50 is 0.0173 µM at PI3Kδ; 0.685 µM at PI3Kγ; above 10000 nM on PIK3C2A; 9960 nM at PIK3C2B; 1.16 µM on PI3Kβ; 3.35 µM on PI3Kα. Besides, in series [1] (14 days, FIG. 1a), the “effect on the body weight of rats” value is “no significant effect”. The “paw swelling as compared with the vehicle group” value in series [1] (after 14 days of administration, FIG. 1b) is recorded as “significantly reduced”.

Turning to `COc1ccc(-c2nn(Cc3nc4cccc(F)c4c(=O)n3C3CC3)c3ncnc(N)c23)cc1F` [Compound 6, 2-((4-amino-3-(3-fluoro-4-methoxyphenyl)-1H-pyrazolo [3,4-d]pyrimidin-1-yl)methyl)-3-cyclopropyl-5-fluoroquinazolin-4(3H)-one], the IC50 at PI3Kδ was found to be 0.031 µM; on PI3Kγ, 0.299 µM; on PI3Kβ, 0.523 µM; against PI3Kα it was 1.69 µM.

On to `COc1ccc(-c2nn(C(C)c3nc4ccccc4c(=O)n3C3CCC3)c3ncnc(N)c23)cc1OC` (stereo not shown) [Compound 38, 2-(1-(4-amino-3-(3,4-dimethoxyphenyl)-1H-pyrazolo [3,4-d]pyrimidin-1-yl)ethyl)-3-cyclobutylquinazolin-4(3H)-one], for which the 50% inhibitory concentration (IC50) at PI3Kδ worked out at 0.00959 µM; on PI3Kγ it was 0.261 µM; on PI3Kβ, 0.581 µM; against PI3Kα, 2.23 µM.

Take `COc1ccc(-c2nn(C(C)c3nc4cccc(F)c4c(=O)n3C3CCCC3)c3ncnc(N)c23)cc1F` (stereo not shown) [Compound 5, 2-(1-(4-amino-3-(3-fluoro-4-methoxyphenyl)-1H-pyrazolo [3,4-d]pyrimidin-1-yl)ethyl)-3-cyclopentyl-5-fluoroquinazolin-4(3H)-one]: the IC50 was 0.0186 µM on PI3Kδ, 1.72 µM on PI3Kγ, above 10 µM on PI3Kβ and 5.52 µM on PI3Kα.

As to `COc1ccc(-c2nn(C(C)c3nc4ccccc4c(=O)n3C3CCC3)c3ncnc(N)c23)cc1` (stereo not shown) [Compound 37, 2-(1-(4-amino-3-(4-methoxyphenyl)-1H-pyrazolo [3,4-d]pyrimidin-1-yl)ethyl)-3-cyclobutylquinazolin-4(3H)-one], the half-inhibitory concentration (IC50) was determined as 0.001 µM on PI3Kδ, 0.753 µM on PI3Kγ, 3.28 µM at PI3Kβ and 4.21 µM against PI3Kα.

Consider `COc1ccc(-c2nn(C(C)c3nc4ccc(F)cc4c(=O)n3C3CC3)c3ncnc(N)c23)cc1F` (stereo not shown) [Compound 22, 2-(1-(4-amino-3-(3-fluoro-4-methoxyphenyl)-1H-pyrazolo [3,4-d]pyrimidin-1-yl)ethyl)-3-cyclopropyl-6-fluoroquinazolin-4(3H)-one], for which the half-maximal inhibitory concentration (IC50) against PI3Kδ was determined as 0.0041 µM; on PI3Kγ, 0.485 µM; at PI3Kβ, 0.344 µM; on PI3Kα it was 1.69 µM.
